Results taken from patent publication US20040048262A1, “Methods for determining the bilogical effects of compounds on gene expression” (priority 2003, published 2004).

System: PC12 cells
Assay: Transcription factor DNA-binding activity profile, nuclear extracts of NGF-treated PC12 cells, random 16-mer library (FIG. 2)
Assay type: cell-based
Settings: 200 ng/ml NGF-beta, 5 hr, vs untreated
Description: FIG. 2 is a bar graph showing the effects of nerve growth factor (NGF) treatment on transcription factor DNA-binding activities in PC12 cells. The identity of the specific transcription factors whose binding activity is being detected are listed on the X-axis. The level of DNA binding activity for each individual transcription factor is depicted as a percentage of the total number of DNA fragments sequenced from the “bound” fraction of the DNA library used in the binding reactions and containing the cognate site for that particular protein (shown as a numerical value on the Y-axis). The level of binding activities for all the proteins detected as a result of their cognate binding sites being found in the “bound” fraction of the DNA library constitutes the transcription factor activity profiles for PC12 cells and PC12 cells following NGF treatment. The profiles generated provide a useful indicator of the mechanism of action of the compound being used for the cell treatrment. For example, if the mechanism of action of NGF was to increase the expression of a particular cell surface receptor, then one would expect to see altered levels of binding activities for those transcription factors known to regulate the expression of the gene that encodes that particular receptor in the NGF-treated sample. If one did indeed see altered binding activity levels of factors known to regulate a particular receptor gene or set of genes, then one could immediately assay for those changes in gene expression as a result of inference from the transcription factor activity profile.
In a specific example, PC12 cells were grown in high glucose DMEM containing 10% horse serum and 5% fetal calf serum. For differentiation, cells were transferred to serum-free medium containing N-2 Supplement (Life Technologies) and 200 ng/ml Nerve Growth Factor-beta (Sigma). Cells were harvested after 5 hr and nuclear extracts were prepared as described above. A positive response of the PC12 cells to NGF was monitored by EMSA of AP-1 activity.
In this example, nuclear extracts were incubated with a random 16-mer library and the DNA present in specific protein/DNA complexes was isolated and sequenced. Known transcription factor binding sites present in the DNA sequences were counted as described in Example 1 and the data generated are presented in FIG. 2 in the same mainer as in Example 2. Thus, the bars indicate the percentage of DNA fragments containing selected cis sites that were isolated in binding reactions containing nuclear extracts from either untreated (white bars) or NGF-treated (black bars) PC12 cells. It can be seen that NGF-treatment leads to an increase in binding activity for AP 1, ATF, TCF11 (among others), while for example E2F and RFX1 activities are reduced after NGF treatment.

NGF: Nerve Growth Factor-beta (Sigma)
change in E2F activity after NGF treatment: reduced | change in RFX1 activity after NGF treatment: reduced | change in binding activity for AP 1 after NGF treatment: increase | change in binding activity for ATF after NGF treatment: increase | change in binding activity for TCF11 after NGF treatment: increase
